The record followed here is patent publication US9758477B2, “Sulfamoylbenzamide derivatives as antiviral agents against HBV infection” (priority 2011, dated 2017).

Assay [1] has as its system encapsidated pgRNA. The assay is described as follows: Encapsidated pgRNA by Northern blot in AML12HBV10 cells. Format: cell-based, Hepatitis B virus (HBV). Particulars: 2 days, FIG. 3 panel C, Bay41-4109 5 μM, AT-61 25 μM. As to the method: (§1) To obtain mechanistic insight of the compounds of present invention against HBV, AML12HBV10 cells cultured in the 12-well plates were treated with a series of concentrations of DVR-1, DVR-56 or DVR-23 for two days in the absence of tetracycline (Guo et al., 2007). As positive controls, the cells were also treated with Bay41-4109 (5 μM) or AT-61 (25 μM), the known HBV nucleocapsid assembly effectors that either bind to HBV core protein dimmer to misdirect its interaction and prevent capsid formation (Bay41-4109) (Deres et al., 2003: Stray and Zlotnick, 2006), or interact with a core assembly intermediate and promote the formation of empty capsids (AT-61) (Feld et al., 2007; Katen et al., King et al., 1998). The amounts of intracellular viral mRNA, encapsidated pgRNA, capsids and nucleocapsid-associated HBV DNA were analyzed with the methods detailed below.
Determination of encapsidated pgRNA: AML12HBV10 cells were lysed by addition of 600 μl of lysis buffer (50 mM Tris-HCl [pH 7.5], 1 mM EDTA, 150 mM NaCl, 1% NP-40) into each well of 12-well plates. The nuclei were removed by centrifugation at 5,000 g for 10 minutes. One-half of the sample was mixed with 6 U of micrococcal nuclease (Pharmacia) and 15 μl of 100 mM CaCl2 and incubated for 15 minutes at 37° C. to digest free nucleic acids. The reaction was stopped with 6 μl of 0.5 M EDTA, and capsids were precipitated by adding 125 μl of 35% polyethylene glycol 8000 in 1.75 M NaCl to the reaction and incubating in ice for 30 minutes, followed by centrifugation at 6,000 g for 10 minutes at 4° C. Pellets were re-suspended in 50 μl of TNE buffer (10 mM Tris-HCl [pH 8], 100 mM NaCl, 1 mM EDTA), pgRNA was extracted by the addition of 1 ml of Trizol reagent. The encapsidated pgRNA were electrophoresed through a 2.2 M formaldehyde-1% agarose gel, transferred to a nylon membrane, and immobilized by UV cross-linking (Stratagene). Hybridization was performed with an alpha-^32P-UTP labeled riboprobe specific for plus strand of HBV genome.

Assay [2] relates to HBV mRNA. Kind of assay: Analysis of HBV mRNA by Northern blot in AML12HBV10 cells. Format: cell-based, Hepatitis B virus (HBV). Particulars: 2 days, FIG. 3 panel A. As to the method: as §1
Procedure for analysis of HBV mRNA: Upon the completion of treatment, total cellular RNA was extracted with TRIzol reagents (Invitrogen). Five micrograms of total RNA was resolved in 1.5% agarose gel containing 2.2 M formaldehyde and transferred onto Hybond-XL membrane in 20×SSC buffer. The amounts of HBV mRNA were determined by Northern blot hybridization with an alpha-^32P-UTP labeled riboprobe specific for plus strand of HBV genome.

Consider `CCC(C)NS(=O)(=O)c1ccc(F)c(C(=O)Nc2ccc(F)c(F)c2)c1` (stereo not shown) [DVR-23, 5-sec-butylsulfamoyl-N-(3,4-difluoro-phenyl)-2-fluoro-benzamide], for which the “level of encapsidated pgRNA” value in assay [1] is “dose-dependently reduced”. The “amount of viral mRNA” value in assay [2] was “did not affect”.

As for `O=C(Nc1ccc(F)c(F)c1)c1cc(S(=O)(=O)NC2CCCC2)ccc1F` [DVR-56, 5-cyclopentylsulfamoyl-N-(3,4-difluoro-phenyl)-2-fluoro-benzamide], the “level of encapsidated pgRNA” value in assay [1] is listed as “dose-dependently reduced”. The “amount of viral mRNA” value in assay [2] is “did not affect”.
